pIC50: −log10 of the molar value. ≈ marks a conversion by molar mass, not a printed value.
Key:
Candida albicans [1] = assay: Inhibition of biofilm formation in Candida albicans MTCC 3017 incubated for 24 hrs by crystal violet staining based microtiter plate method; format: functional, organism-based; details: Candida albicans, MTCC 3017, 24 h; read-out: IC50
Nakaseomyces glabratus [2] = assay: Antifungal activity against Candida glabrata MTCC 3019; format: functional
Escherichia coli [3] = assay: Inhibition of biofilm formation in Escherichia coli MTCC 739 incubated for 24 hrs by crystal violet staining based microtiter plate method; format: functional, organism-based; details: Escherichia coli, MTCC 739, 24 h; read-out: IC50
Pichia kudriavzevii = assay: Antifungal activity against Candida krusei MTCC 3020; format: functional
Staphylococcus aureus [4] = assay: Inhibition of biofilm formation in Staphylococcus aureus […] incubated for 24 hrs by crystal violet staining based microtiter plate method; format: functional, organism-based; details: Staphylococcus aureus, MTCC 92, 24 h; read-out: IC50
Candida albicans [5] = assay: Antifungal activity against Candida albicans MTCC 227; format: functional
Staphylococcus aureus [6] = assay: Inhibition of biofilm formation in Staphylococcus aureus MLS16 MTCC 2940 incubated for 24 hrs by crystal violet staining based microtiter plate method; format: functional, organism-based
Staphylococcus aureus [7] = assay: Bactericidal activity against Staphylococcus aureus MTCC 96; format: functional
Escherichia coli [8] = assay: Antibacterial activity against Escherichia coli MTCC 739 assessed as inhibition of bacterial growth by microtiter broth dilution method; format: functional
THP-1 [9] = assay: Cytotoxicity against human THP-1 cells assessed as cell damage at 200 uM by LDH assay; format: cell-based; details: thp-1, 200 µM
Candida albicans [10] = assay: Antifungal activity against Candida albicans MTCC 4748; format: functional
Staphylococcus aureus [11] = assay: Antibacterial activity against Staphylococcus aureus MTCC 96 assessed as inhibition of bacterial growth by microtiter broth dilution method; format: functional
Raoultella planticola [12] = assay: Bactericidal activity against Klebsiella planticola MTCC 530; format: functional
Candida albicans [13] = assay: Antifungal activity against Candida albicans MTCC 3018; format: functional
Staphylococcus aureus [14] = assay: Bactericidal activity against Staphylococcus aureus MLS16 MTCC 2940; format: functional
Candida albicans [15] = assay: Antifungal activity against Candida albicans MTCC 3958; format: functional
Micrococcus luteus [16] = assay: Inhibition of biofilm formation in Micrococcus luteus MTCC 2470 incubated for 24 hrs by crystal violet staining based microtiter plate method; format: functional, organism-based; details: Micrococcus luteus, MTCC 2470, 24 h; read-out: IC50
Pichia sporocuriosa [17] = assay: Fungicidal activity against Issatchenkia hanoiensis MTCC 4755; format: functional
[Candida] aaseri [18] = Antifungal activity against Candida aaseri MTCC 1962; format: functional; details: Yamadazyma aaseri
Candida albicans [19] = assay: Antifungal activity against Candida albicans MTCC 183; format: functional
[20] = Cytotoxicity against human THP-1 cells; format: cell-based
Bacillus subtilis [21] = assay: Antibacterial activity against Bacillus subtilis MTCC 121 assessed as inhibition of bacterial growth by microtiter broth dilution method; format: functional
Bacillus subtilis [22] = assay: Inhibition of biofilm formation in Bacillus subtilis MTCC 121 incubated for 24 hrs by crystal violet staining based microtiter plate method; format: functional, organism-based; details: Bacillus subtilis, MTCC 121, 24 h; read-out: IC50
Candida albicans [23] = assay: Antifungal activity against Candida albicans MTCC 854; format: functional
THP-1 [24] = assay: Cytotoxicity against human THP-1 cells assessed as reduction in cell viability at 200 uM by MTT assay; format: cell-based; details: thp-1, 200 µM
Bacillus subtilis [25] = assay: Bactericidal activity against Bacillus subtilis MTCC 121; format: functional
Candida parapsilosis = assay: Antifungal activity against Candida parapsilosis MTCC 1745; format: functional; details: Lodderomyces parapsilosis
Pseudomonas aeruginosa [26] = assay: Antibacterial activity against Pseudomonas aeruginosa MTCC 2453 assessed as inhibition of bacterial growth by microtiter broth dilution method; format: functional
Raoultella planticola [27] = assay: Inhibition of biofilm formation in Klebsiella planticola MTCC 530 incubated for 24 hrs by crystal violet staining based microtiter plate method; format: functional, organism-based; details: Klebsiella planticola, MTCC 530, 24 h; read-out: IC50
Raoultella planticola [28] = assay: Antibacterial activity against Klebsiella planticola MTCC 530 assessed as inhibition of bacterial growth by microtiter broth dilution method; format: functional
Micrococcus luteus [29] = assay: Bactericidal activity against Micrococcus luteus MTCC 2470; format: functional
Escherichia coli [30] = assay: Bactericidal activity against Escherichia coli MTCC 739; format: functional
Pichia sporocuriosa [31] = assay: Antifungal activity against Issatchenkia hanoiensis MTCC 4755; format: functional
Micrococcus luteus [32] = assay: Antibacterial activity against Micrococcus luteus MTCC 2470 assessed as inhibition of bacterial growth by microtiter broth dilution method; format: functional
Candida albicans [33] = assay: Fungicidal activity against Candida albicans MTCC 183; format: functional
Pseudomonas aeruginosa [34] = assay: Bactericidal activity against Pseudomonas aeruginosa MTCC 2453; format: functional
Candida albicans [35] = assay: Antifungal activity against Candida albicans MTCC 1637; format: functional
[36] = Selectivity index, ratio of CC50 for human THP-1 cells to MIC for Staphylococcus aureus MTCC 96; format: toxicity
Pseudomonas aeruginosa [37] = assay: Inhibition of biofilm formation in Pseudomonas aeruginosa MTCC 2453 incubated for 24 hrs by crystal violet staining based microtiter plate method; format: functional, organism-based; details: Pseudomonas aeruginosa, MTCC 2453, 24 h; read-out: IC50
Staphylococcus aureus [38] = assay: Antibacterial activity against Staphylococcus aureus MLS16 MTCC 2940 assessed as inhibition of bacterial growth by microtiter broth dilution method; format: functional
Nakaseomyces glabratus [39] = assay: Fungicidal activity against Candida glabrata MTCC 3019; format: functional
[Candida] aaseri [40] = Fungicidal activity against Candida aaseri MTCC 1962; format: functional; details: Yamadazyma aaseri
Candida albicans [41] = assay: Fungicidal activity against Candida albicans MTCC 1637; format: functional
Candida albicans [42] = assay: Fungicidal activity against Candida albicans MTCC 3018; format: functional

`COc1ccc(-n2cc(COc3ccc(/C=N/Nc4nc(-c5cc6cccc(OC)c6oc5=O)cs4)cc3)nn2)cc1` showed a pIC50 (Candida albicans [1]) of 4.45, an MIC (Nakaseomyces glabratus [2]) greater than 215 µM and a pIC50 (Escherichia coli [3]) of 4.17. It also gave an MIC (Pichia kudriavzevii) greater than 215 µM, a pIC50 (Staphylococcus aureus [4]) of 4.87 and an MIC (Candida albicans [5]) greater than 215 µM. For the same molecule, the IC50 (Staphylococcus aureus [6]) was “Not Active”, the MBC (Staphylococcus aureus [7]) was 13.4 µM (≈ 7.78 µg/mL) and the MIC (Escherichia coli [8]) was 6.7 µM (≈ 3.89 µg/mL). The Activity (THP-1 [9]) was “Toxic”, the MIC (Candida albicans [10]) was greater than 215 µM and the MIC (Staphylococcus aureus [11]) was 3.71 µM (≈ 2.15 µg/mL). It also gave an MBC (Raoultella planticola [12]) of 6.7 µM (≈ 3.89 µg/mL), an MIC (Candida albicans [13]) greater than 215 µM and an MBC (Staphylococcus aureus [14]) of 13.4 µM (≈ 7.78 µg/mL). For the same molecule, the MIC (Candida albicans [15]) was greater than 215 µM, the pIC50 (Micrococcus luteus [16]) was 3.81 and the MFC (Pichia sporocuriosa [17]) was 13.4 µM (≈ 7.78 µg/mL). For the same molecule, the MIC ([Candida] aaseri [18]) was greater than 215 µM, the MIC (Candida albicans [19]) was 13.4 µM (≈ 7.78 µg/mL) and the CC50 [20] was 34.5 µM. The MIC (Bacillus subtilis [21]) was 3.71 µM (≈ 2.15 µg/mL), the pIC50 (Bacillus subtilis [22]) was 4.78 and the MIC (Candida albicans [23]) was greater than 215 µM. For the same molecule, the Activity (THP-1 [24]) was “Toxic”, the MBC (Bacillus subtilis [25]) was 13.4 µM (≈ 7.78 µg/mL) and the MIC (Candida parapsilosis) was greater than 215 µM. The MIC (Pseudomonas aeruginosa [26]) was 13.4 µM (≈ 7.78 µg/mL), the pIC50 (Raoultella planticola [27]) was 4.40 and the MIC (Raoultella planticola [28]) was 3.2 µM (≈ 1.86 µg/mL). For the same molecule, the MBC (Micrococcus luteus [29]) was 13.4 µM (≈ 7.78 µg/mL), the MBC (Escherichia coli [30]) was 6.7 µM (≈ 3.89 µg/mL) and the MIC (Pichia sporocuriosa [31]) was 6.7 µM (≈ 3.89 µg/mL). For the same molecule, the MIC (Micrococcus luteus [32]) was 3.71 µM (≈ 2.15 µg/mL), the MFC (Candida albicans [33]) was 26.9 µM (≈ 15.6 µg/mL) and the MBC (Pseudomonas aeruginosa [34]) was 28.8 µM (≈ 16.7 µg/mL). The MIC (Candida albicans [35]) was greater than 215 µM, the selectivity ratio [36] was 9.28 and the pIC50 (Pseudomonas aeruginosa [37]) was 4.33. It also gave an MIC (Staphylococcus aureus [38]) of 3.71 µM (≈ 2.15 µg/mL).
For `COc1ccc(-n2cc(COc3ccc(/C=N/Nc4nc(-c5cc6cc(Br)cc(OC)c6oc5=O)cs4)cc3)nn2)cc1`, the pIC50 (Candida albicans [1]) was 4.39, the MIC (Nakaseomyces glabratus [2]) was 5.9 µM (≈ 3.89 µg/mL) and the pIC50 (Escherichia coli [3]) was 4.66. It also gave an MIC (Pichia kudriavzevii) greater than 190 µM, a pIC50 (Staphylococcus aureus [4]) of 4.92 and an MIC (Candida albicans [5]) greater than 190 µM. For the same molecule, the IC50 (Staphylococcus aureus [6]) was “Not Active”, the MBC (Staphylococcus aureus [7]) was 11.8 µM (≈ 7.78 µg/mL) and the MIC (Escherichia coli [8]) was 5.9 µM (≈ 3.89 µg/mL). The Activity (THP-1 [9]) was “Toxic”, the MIC (Candida albicans [10]) was greater than 190 µM and the MIC (Staphylococcus aureus [11]) was 5.9 µM (≈ 3.89 µg/mL). The MBC (Raoultella planticola [12]) was 5.9 µM (≈ 3.89 µg/mL), the MIC (Candida albicans [13]) was 5.9 µM (≈ 3.89 µg/mL) and the MBC (Staphylococcus aureus [14]) was 11.8 µM (≈ 7.78 µg/mL). For the same molecule, the MIC (Candida albicans [15]) was greater than 190 µM, the pIC50 (Micrococcus luteus [16]) was 4.32 and the MIC ([Candida] aaseri [18]) was 5.9 µM (≈ 3.89 µg/mL). The MIC (Candida albicans [19]) was 11.8 µM (≈ 7.78 µg/mL), the MFC (Nakaseomyces glabratus [39]) was 11.8 µM (≈ 7.78 µg/mL) and the CC50 [20] was 30.3 µM. The MIC (Bacillus subtilis [21]) was 5.9 µM (≈ 3.89 µg/mL), the pIC50 (Bacillus subtilis [22]) was 4.80 and the MIC (Candida albicans [23]) was greater than 190 µM. The Activity (THP-1 [24]) was “Toxic”, the MBC (Bacillus subtilis [25]) was 11.8 µM (≈ 7.78 µg/mL) and the MIC (Candida parapsilosis) was greater than 190 µM. It also gave an MIC (Pseudomonas aeruginosa [26]) of 5.9 µM (≈ 3.89 µg/mL), a pIC50 (Raoultella planticola [27]) of 4.65 and an MIC (Raoultella planticola [28]) of 2.8 µM (≈ 1.85 µg/mL). For the same molecule, the MBC (Micrococcus luteus [29]) was 11.8 µM (≈ 7.78 µg/mL), the MBC (Escherichia coli [30]) was 11.8 µM (≈ 7.78 µg/mL) and the MIC (Pichia sporocuriosa [31]) was greater than 190 µM. It also gave an MIC (Micrococcus luteus [32]) of 5.9 µM (≈ 3.89 µg/mL), an MFC ([Candida] aaseri [40]) of 11.8 µM (≈ 7.78 µg/mL) and an MFC (Candida albicans [33]) of 23.7 µM (≈ 15.6 µg/mL). For the same molecule, the MBC (Pseudomonas aeruginosa [34]) was 11.8 µM (≈ 7.78 µg/mL), the MFC (Candida albicans [41]) was 11.8 µM (≈ 7.78 µg/mL) and the MIC (Candida albicans [35]) was 5.9 µM (≈ 3.89 µg/mL). It also gave a selectivity ratio [36] of 5.14, a pIC50 (Pseudomonas aeruginosa [37]) of 4.61 and an MFC (Candida albicans [42]) of 11.8 µM (≈ 7.78 µg/mL). For the same molecule, the MIC (Staphylococcus aureus [38]) was 5.9 µM (≈ 3.89 µg/mL).
